For three molecules, MIC50, MIC90 and MIC results are on record in patent publication EP0554004A2, “Cephem compounds and antibacterial agents” (KATAYAMA SEIYAKUSYO CO. Ltd., priority 1992, dated 1993).

Each structure is given as a SMILES string. Where a name gives a salt, the structure may show the parent alone.

In one assay the test system is clinically isolated MRSA. The experiment in a line: Antibacterial potency against clinically isolated MRSA (Test Example 2). As to conditions: Staphylococcus aureus, 52 strains of clinically isolated MRSA; for MIC50: concentration inhibiting growth of 50% of the strains (Test Example 2); for MIC90: concentration inhibiting growth of 90% of the strains (Test Example 2). Format: cell-based, methicillin-resistant Staphylococcus aureus. The method, then: A test on the antibacterial potency against clinically isolated MRSA was conducted in the following way.
52 strains of clinically isolated MRSA were used, and MIC was determined for each of the strains according to the standard method of the Japan Chemotherapical Society as in Test Example 1. The minimum growth inhibitory concentration which inhibited growth of 50% of the strains tested was expressed as MIC50 (µg/ml), and the minimum growth inhibitory concentration which inhibited growth of 90% of the strains was expressed as MIC90 (µg/ml).
In this test, FMOX (flomoxef), IPM/CS (imipenem/cilastatin), CMZ (cefmetazole), MINO (minocycline) and DMPPC (methicillin) were used as control agents.

The test system of another assay is Proteus vulgalis OX-19. The experiment in a line: MIC against standard strains (Test Example 1). In kind it is cell-based. The note with it: Muller-Hinton agar, 37°C overnight. Here is the method:
(§1) By using each test strain cultured overnight at 37°C in a Muller-Hinton broth, there was prepared a bacterial solution with a bacterial cell population of 1 x 10^6 CFU/mi of the same bouillon. The bacterial solution was inoculated into the Muller-Hinton agar media each containing respectively one test agent and, after overnight incubation at 37°C, the minimum concentration that inhibited growth of the bacteria was determined and shown as MIC also in Table 1.
(§2) Staphylococcus aureus 167 and Staphylococcus aureus 195 used in the test were MRSA. CTM (cefotiam) and FMOX (flomoxef) were used as control agents.

In assay [1] the test system is Escherichia coli NIHJ JC-2. The assay is described as follows: MIC against standard strains (Test Example 1). Format: cell-based. As to conditions: NIHJJC2, Muller-Hinton agar, 37°C overnight. Here is the method:
as §1, §2

In assay [2] the test system is Staphylococcus aureus 195. The assay is described as follows: MIC against standard strains (Test Example 1). In kind it is cell-based. The note with it: Staphylococcus aureus 195 (MRSA); Muller-Hinton agar, 37°C overnight. The method, then: as §1, §2
Assay [3] deals with Staphylococcus epidermidis IAM 1296. The assay is described as follows: MIC against standard strains (Test Example 1). Format: cell-based. As to conditions: IAM1296, Muller-Hinton agar, 37°C overnight. The method, then:
as §1, §2

Assay [4] relates to Serratia marcescens IAM 1184. The assay is described as follows: MIC against standard strains (Test Example 1). The note with it: IAM1184, Muller-Hinton agar, 37°C overnight. In kind it is cell-based. The method, then: as §1, §2
For assay [5], the system named is Klebsiella pneumoniae IFO 3317. The assay is described as follows: MIC against standard strains (Test Example 1). In kind it is cell-based. As to conditions: IFO3317, Muller-Hinton agar, 37°C overnight. Here is the method: as §1, §2
Assay [6] relates to Enterobacter cloacae ATCC 13407. The assay is described as follows: MIC against standard strains (Test Example 1). Format: cell-based. As to conditions: ATCC13407, Muller-Hinton agar, 37°C overnight. Here is the method:
as §1, §2

For assay [7], the system named is Morganella morganii IFO 3848. The experiment in a line: MIC against standard strains (Test Example 1). As to conditions: IFO3848, Muller-Hinton agar, 37°C overnight. In kind it is cell-based. The method, then: as §1, §2
Assay [8] concerns Psuedomonas aeruginosa IFO 3445. The assay is described as follows: MIC against standard strains (Test Example 1). Format: cell-based. The note with it: Muller-Hinton agar, 37°C overnight. Here is the method:
as §1, §2

Assay [9] deals with Staphylococcus aureus Smith. The experiment in a line: MIC against standard strains (Test Example 1). As to conditions: Muller-Hinton agar, 37°C overnight. In kind it is cell-based. Here is the method: as §1, §2
Assay [10] has as its system Staphylococcus aureus 209P JC-1. The assay is described as follows: MIC against standard strains (Test Example 1). In kind it is cell-based. The note with it: Muller-Hinton agar, 37°C overnight. Here is the method:
as §1, §2

Assay [11] relates to Pseudomonas aeruginosa NCTC 10490. The assay is described as follows: MIC against standard strains (Test Example 1). In kind it is cell-based. As to conditions: NCTC10490, Muller-Hinton agar, 37°C overnight. The method, then:
as §1, §2

Assay [12] relates to Escherichia coli CSH2 (RK1). The experiment in a line: MIC against standard strains (Test Example 1). Format: cell-based. The method, then: as §1, §2
Assay [13] deals with Bacillus subtilis ATCC 6633. The assay is described as follows: MIC against standard strains (Test Example 1). Format: cell-based. The note with it: ATCC6633, Muller-Hinton agar, 37°C overnight. The method, then: as §1, §2
Assay [14] relates to Micrococcus luteus ATCC 9341. The assay is described as follows: MIC against standard strains (Test Example 1). Format: cell-based. The note with it: ATCC9341, Muller-Hinton agar, 37°C overnight. The method, then: as §1, §2
Assay [15] has as its system Proteus mirabilis IFO 3849. The experiment in a line: MIC against standard strains (Test Example 1). In kind it is cell-based. The note with it: IFO3849, Muller-Hinton agar, 37°C overnight. Here is the method: as §1, §2
The subject of assay [16] is Klebsiella pneumoniae No. 42. The experiment in a line: MIC against standard strains (Test Example 1). In kind it is cell-based. The note with it: Muller-Hinton agar, 37°C overnight. The method, then:
as §1, §2

The test system of assay [17] is Citrobacter freundii ATCC 8090. The experiment in a line: MIC against standard strains (Test Example 1). In kind it is cell-based. The note with it: ATCC8090, Muller-Hinton agar, 37°C overnight. The method, then: as §1, §2
Assay [18] deals with Escherichia coli CSH2 (RE45). The assay is described as follows: MIC against standard strains (Test Example 1). In kind it is cell-based. Here is the method:
as §1, §2

Assay [19] relates to Staphylococcus aureus 167. The assay is described as follows: MIC against standard strains (Test Example 1). Format: cell-based. The note with it: Staphylococcus aureus 167 (MRSA); Muller-Hinton agar, 37°C overnight. The method, then:
as §1, §2

In the assay with clinically isolated MRSA, `NC(=O)Nc1ccc[n+](CC2=C(C(=O)[O-])N3C(=O)[C@@H](NC(=O)/C(=N\O)c4csc(N)n4)[C@H]3SC2)c1` [Compound (4), 7β-[2-(2-aminothiazol-4-yl)-2-syn-hydroxyiminoacetamido]-3-[(3-ureido-1-pyridinio)methyl]-3-cephem-4-carboxylic acid chloride] displayed an MIC50 of 2.17 µg/mL. In the assay on clinically isolated MRSA, this molecule returned an MIC90 of 6.16 µg/mL. The MIC in the assay with Proteus vulgalis OX-19 was 0.78 µg/mL; in assay [1], 0.1 µg/mL; in assay [2], 3.13 µg/mL; in assay [3], 0.05 µg/mL; in [4], 0.1 µg/mL; in assay [5] it was 0.1 µg/mL. For the same molecule, the MIC in assay [6] was 0.39 µg/mL; in assay [7], 0.05 µg/mL; in assay [8] it was 12.5 µg/mL; in [9] it was 0.2 µg/mL; in assay [10], 0.1 µg/mL; in [11], 1.56 µg/mL. The MIC came to 0.78 µg/mL in assay [12]; 0.2 µg/mL in assay [13]; 0.39 µg/mL in [14]; 0.1 µg/mL in assay [15]; 0.39 µg/mL in [16]; 0.1 µg/mL in [17]. The MIC in assay [18] came out at 0.39 µg/mL; in [19], 12.5 µg/mL.

In the assay with clinically isolated MRSA, `Nc1ccc[n+](CC2=C(C(=O)[O-])N3C(=O)[C@@H](NC(=O)/C(=N\O)c4csc(N)n4)[C@H]3SC2)c1` [Compound (3), 7β-[2-(2-aminothiazol-4-yl)-2-syn-hydroxyiminoacetamido]-3-[(3-amino-1-pyridinio)methyl]-3-cephem-4-carboxylate hydrochloride] had an MIC50 of 3.94 µg/mL. Besides, in the assay with clinically isolated MRSA, the MIC90 amounted to 9.21 µg/mL. Besides, the MIC worked out at 0.39 µg/mL in the assay with Proteus vulgalis OX-19; 0.2 µg/mL in assay [1]; 3.13 µg/mL in assay [2]; 0.1 µg/mL in [3]; 0.1 µg/mL in assay [4]; 0.1 µg/mL in [5]. Besides, the MIC turned out to be 3.13 µg/mL in assay [6]; 0.05 µg/mL in [7]; 6.25 µg/mL in [8]; 0.39 µg/mL in [9]; 0.2 µg/mL in assay [10]; 3.13 µg/mL in assay [11]. Further, the MIC worked out at 0.39 µg/mL in assay [12]; 0.2 µg/mL in [13]; 0.05 µg/mL in [14]; 0.2 µg/mL in [15]; 0.2 µg/mL in assay [16]; 0.2 µg/mL in assay [17]. Moreover, the MIC came to 0.2 µg/mL in assay [18] and 12.5 µg/mL in assay [19].

As to `NC(=O)c1ccc[n+](CC2=C(C(=O)[O-])N3C(=O)[C@@H](NC(=O)/C(=N\O)c4csc(N)n4)[C@H]3SC2)c1` [Compound (1), 7β-[2-(2-aminothiazol-4-yl)-2-syn-hydroxyiminoacetamido]-3-[(3-carbamoyl-1-pyridinio)methyl]-3-cephem-4-carboxylic acid chloride], the MIC50 in the assay on clinically isolated MRSA was 3.79 µg/mL. The molecule also had an MIC90 in the assay with clinically isolated MRSA of 11.4 µg/mL. Also, the MIC turned out to be 0.78 µg/mL with Proteus vulgalis OX-19; 0.39 µg/mL in assay [1]; 3.13 µg/mL in assay [2]; 0.1 µg/mL in assay [3]; 0.2 µg/mL in assay [4]; 0.2 µg/mL in [5]. Further, the MIC in assay [6] was found to be 0.78 µg/mL; in assay [7], 0.39 µg/mL; in assay [8], 25 µg/mL; in assay [9], 0.39 µg/mL; in assay [10], 0.2 µg/mL; in assay [11] it was 3.13 µg/mL. Further, the MIC was 0.78 µg/mL in assay [12]; 0.39 µg/mL in assay [13]; 0.05 µg/mL in assay [14]; 0.39 µg/mL in assay [15]; 0.78 µg/mL in assay [16]; 0.39 µg/mL in [17]. The results for the MIC in assay [18] and in assay [19] were 0.39 µg/mL and 6.25 µg/mL, respectively.
